B1: Oncostatin M: cytokine of a cytokine family that binds to gp130 (protein, UniProt P13725 26-221, looked up)
Oncostatin-M: AAIGSCSKEYRVLLGQLQKQTDLMQDTSRLLDPYIRIQGLDVPKLREHCRERPGAFPSEETLRGLGRRGFLQTLNATLGCVLHRLADLEQRLPKAQDLERSGLNIEDLEKLQMARPNILGLRNNIYCMAQLLDNSDTAEPTKAGRGASQPPTPTPASDAFQRKLEGCRFLHGYHRFMHSVGRVFSKWGESPNRSRR

Legend:
Assay type in all cases: cell-based
[1] = tested on: human small intestine-derived organoid; assay: Culture of organoids in absence of Matrigel with LATS kinase inhibitor; cell number by ATP (CellTiter-Glo 3D); conditions: both Lats-IN (10 μM) and MYF01-37 added
Method: (§1) In this experimental example, a human small intestine-derived organoid and human large intestine-derived organoid established in the presence of Matrigel (registered trademark) were cultured in the absence of Matrigel (registered trademark) and in the presence of a LATS kinase inhibitor (final concentration: 10 μM), and their dynamics were observed. The procedure was the same as in Experimental Example 1, except that each organoid was cultured in the absence of Matrigel (registered trademark).
The upper left panel of FIG. 3 is a photograph of a control (Ctrl) human small intestine-derived organoid cultured in the absence of Lats-IN, and the upper center panel of FIG. 3 is a photograph of a human small intestine-derived organoid cultured in the presence of Lats-IN. The scale bar is 100 μm. […] The vertical axis of the graph represents luminescence intensity (relative value) indicating the amount of ATP present. […]
(§2) FIG. 8 presents graphs showing the results of measuring the proliferation of the human small intestine-derived and human large intestine-derived organoids in the absence of Lats-IN (Ctrl), in the presence of Lats-IN (Lats-IN), in the presence of Lats-IN and MYF01-37 (Lats-IN+MYF), and in the presence of MYF01-37 (MYF). The cell proliferation was measured by measuring ATP using a commercially available kit (product name “CellTiter-Glo 3D,” Promega Corporation). The vertical axis of the graph represents luminescence intensity (relative value) indicating the amount of ATP present. […]
(§3) FIG. 26 presents graphs showing the results of measuring cell number in each organoid after 6 days of culture by measuring ATP using a commercially available kit (product name “CellTiter-Glo 3D,” Promega Corporation). The vertical axis of the graph represents luminescence intensity (relative value) indicating the amount of ATP present.

[2] = tested on: human large intestine-derived organoid; assay: as above; conditions: both Lats-IN (10 μM) and MYF01-37 added
Method: as §1
The lower left panel of FIG. 3 is a photograph of a control (Ctrl) human large intestine-derived organoid cultured in the absence of Lats-IN, and the lower center panel of FIG. 3 is a photograph of a human large intestine-derived organoid cultured in the presence of Lats-IN. The scale bar is 100 μm. The lower right panel of FIG. 3 is a graph showing the results of measuring cell number in the human large intestine-derived organoids cultured in the presence of the control (Ctrl) and Lats-IN. The vertical axis of the graph represents luminescence intensity (relative value) indicating the amount of ATP present. […]
as §2, §3

[3] = tested on: human liver cell organoids; assay: Culturing liver cell organoids in absence of Matrigel; number of viable cells (CellTiter-Glo 3D); conditions: for number of viable cells, higher than control group: day 6 after seeding
Method: Human liver cell organoids, established from primary human liver cells, were supplemented with TrypLE Express (Thermo Fisher Scientific) and incubated at 37° C. for 5 minutes to dissociate them into single cells.
The cells were then collected and suspended in proliferation medium separately supplemented with 2, 5, 10, 20, or 50 μM TDI-011536 (CAS No. 2687970-96-1), and […] seeded into an ultra-low attachment 96-well plate at 2,000 cells/well. The preferred seeding density is 2,000 to 4,000 cells/well. In addition, cells in proliferation medium supplemented with no TDI-011536 were prepared as a control.
The proliferation medium was a medium consisting of a basal medium (Advanced DMEM/F-12 medium, 10 mM HEPES, 2 mM GlutaMAX, 100 U penicillin, 100 μg/mL streptomycin) supplemented with 10% afamin-Wnt-3A conditioned medium, 2% R-spondin 1 conditioned medium, 2% Noggin conditioned medium, and 20 ng/ml Oncostatin M.
On day 6 after seeding, the number of viable cells in the human liver cell organoids was measured using a commercially available kit (product name “CellTiter-Glo 3D,” Promega Corporation).

[4] = tested on: primary human liver cells (EpCAM-negative); assay: Establishment of liver cell organoids in absence of Matrigel; conditions: for establishment of human liver cell organoids: proliferation medium with both 20 μM TDI-011536 and 20 ng/ml Oncostatin M
Method: Frozen primary human liver cells were suspended in Advanced DMEM/F-12 medium and thawed. Two types of primary human liver cells, Line 1 and Line 2, were used.
Subsequently, each of the thawed primary human liver cells was stained with an APC-labeled mouse anti-human EpCAM antibody, and EpCAM-negative cells were collected using a cell sorter. The collected cells were then suspended in proliferation medium supplemented with 20 μM TDI-011536 and seeded into an ultra-low attachment 96-well plate at 3,000 to 4,000 cells/well. The cells were then cultured to obtain liver cell organoids. In addition, for comparison, cells were also prepared using proliferation medium supplemented with no TDI-011536 or no Oncostatin M.
The passaging of liver cell organoids in the absence of Matrigel (registered trademark) was performed as follows. First, calcium ions and magnesium ions were chelated using 1 mM EDTA/phosphate buffered saline (PBS). Subsequently, the liver cell organoids were supplemented with TrypLE Express (Thermo Fisher Scientific) and incubated at 37° C. for 5 minutes to dissociate them into single cells.
The collected cells were then suspended in proliferation medium supplemented with 20 μM TDI-011536 and seeded into an ultra-low attachment 96-well plate at 2,000 cells/well.
The scale bar is 500 μm. FIG. 24 presents graphs showing the results of measuring changes in cell proliferation over time. In FIG. 24, the vertical axes of the graphs represent cell proliferation (fold increase), and the horizontal axes indicate the number of days of culture. In FIGS. 23 and 24, “OSM” represents Oncostatin M, and “Lats IN” represents the LATS kinase inhibitor (TDI-011536).

Row | Molecule | cell proliferation (ATP luminescence) when TEAD inhibited [1] | cell proliferation (ATP luminescence) when TEAD inhibited [2] | number of viable cells, higher than control group ([3]; 20 μM) | number of viable cells, higher than control group ([3]; 50 μM) | number of viable cells (words, FIG. 22) ([3]; adding the LATS kinase inhibitor) | duration for which established organoids could be cultured ([4]; 20 μM TDI-011536 and Oncostatin M) | establishment of human liver cell organoids [4]
1 | C=CC(=O)N1CCC(C)(Nc2cccc(C(F)(F)F)c2)C1 (centres unmarked) [MYF01-37] | inhibited | inhibited |  |  |  |  | 
2 | O=C(N=c1scc(CO)n1Cc1ccccc1)c1c[nH]c2ncccc12 [TDI-011536] |  |  | 16 fold | 17 fold | increase in the number of viable cells was observed | at least two months | successfully established
3 | B1 |  |  |  |  |  |  | successfully established

Source: US20250283049A1, “AGENT FOR CULTURING ORGANOID IN ABSENCE OF EXTRACELLULAR MATRIX” (KEIO UNIVERSITY, priority 2022, published 2025)
